This note sets out measurements from PMC9130746, “In Vitro Activity of Peptide Antibiotics in Combination With Other Antimicrobials on Extensively Drug-Resistant Acinetobacter baumannii in the Planktonic and Biofilm Cell” (Frontiers in Pharmacology, 2022).

Molecules are shown by their SMILES. Values after ≈ are worked out from the molar mass of the structure shown. Where two headings read alike, the source gives them in different places.

In test [1] the test system is extensively drug-resistant A. baumannii clinical isolates (planktonic cell). Description: microbe, parasite or virus in culture. Type of test: cell-based, Acinetobacter baumannii. The source says: (§1) Nine XDRAB strains were isolated from clinical specimens such as the septum, urine, or respiratory lavage fluid of patients from the respiratory intensive care unit, intensive care unit, the cardiothoracic surgery department, and the neurology department at the First Affiliated Hospital of Chengdu Medical College during the period from 2018 to 2020 (Chengdu, Sichuan, China). In addition, A. baumannii ATCC 19606, Staphylococcus aureus ATCC 29213, and Escherichia coli ATCC 25922 were used as quality control strains in antimicrobial susceptibility testing (AST) and obtained from the American Type Culture Collection (ATCC, Manassas, VA, United States).
The minimum inhibitory concentrations (MICs) were determined by the broth microdilution method for the antibacterial agents and peptide antibiotics for A. baumannii based on the guidelines provided by the Clinical and Laboratory Standards Institute (CLSI) ([Humphries et al., 2021]). Briefly, bacterial cells were inoculated in Luria–Bertani agar medium at 37°C for 16–20 h, and then resuspended in saline (0.9% sodium chloride) to adjust the bacterial content to reach the 0.5 McFarland turbidity standard, followed by a 20-fold dilution. Antimicrobial solutions were prepared according to the CLSI ([Humphries et al., 2021]). Finally, 180 μl CAMHB, 10 µl corresponding antimicrobials, and 10 µl bacterial resuspension were added into 96-well plate (NEST TC, 701001, www.cell-nest.com). The value of OD600 was measured after incubating at 37°C for 16–20 h.

Test [2] concerns extensively drug-resistant A. baumannii clinical isolates (biofilm cell). Type of test: cell-based, Acinetobacter baumannii. The following applies: after XDRAB biofilm formation, nine isolates.
From the text: as §1
The minimum biofilm inhibitory concentrations (MBICs) were detected using a previous study protocol ([Kart et al., 2021]) for the antibacterial agents and peptide antibiotics for A. baumannii in the biofilm cell. First, bacterial cells were inoculated in Luria–Bertani agar medium at 37°C for 16–20 h. Next, the bacterial monoclones were resuspended in saline (0.9% sodium chloride) to adjust the bacterial content to reach the 0.5 McFarland turbidity standard. Then, 190 µl TSB and 10 µl bacterial resuspension were mixed in a 96-well plate. After incubating at 37°C for 24 h, the medium was aspirated, and 200 µl PBS was added to wash three times. Finally, 190 μl MH broth medium and 10 µl corresponding antibiotics were added into 96-well plate (NEST TC, 701001, www.cell-nest.com). The optical density was measured at OD600 after incubating for 16–20 h at 37°C.

[3] abbreviates: isolate AB1, planktonic, broth microdilution, CAMHB, 37°C 16–20 h, OD600.
[4] abbreviates: isolate AB2, planktonic, broth microdilution, CAMHB, 37°C 16–20 h, OD600.
The mark [5] stands for this setting: isolate AB3, planktonic, broth microdilution, CAMHB, 37°C 16–20 h, OD600.
Where [6] appears, read: isolate AB4, planktonic, broth microdilution, CAMHB, 37°C 16–20 h, OD600.
[7] abbreviates: isolate AB5, planktonic, broth microdilution, CAMHB, 37°C 16–20 h, OD600.
[8] abbreviates: isolate AB6, planktonic, broth microdilution, CAMHB, 37°C 16–20 h, OD600.
The mark [9] stands for this setting: isolate AB7, planktonic, broth microdilution, CAMHB, 37°C 16–20 h, OD600.
Where [10] appears, read: isolate AB8, planktonic, broth microdilution, CAMHB, 37°C 16–20 h, OD600.
[11] abbreviates: Acinetobacter baumannii, isolate AB1, planktonic, broth microdilution, CAMHB, 37°C 16–20 h, OD600, read-out: MIC.
Where [12] appears, read: Acinetobacter baumannii, isolate AB2, planktonic, broth microdilution, CAMHB, 37°C 16–20 h, OD600, read-out: MIC.
The mark [13] stands for this setting: Acinetobacter baumannii, isolate AB3, planktonic, broth microdilution, CAMHB, 37°C 16–20 h, OD600, read-out: MIC.
Setting [14] is: Acinetobacter baumannii, isolate AB4, planktonic, broth microdilution, CAMHB, 37°C 16–20 h, OD600, read-out: MIC.
Where [15] appears, read: Acinetobacter baumannii, isolate AB5, planktonic, broth microdilution, CAMHB, 37°C 16–20 h, OD600, read-out: MIC.
The mark [16] stands for this setting: Acinetobacter baumannii, isolate AB6, planktonic, broth microdilution, CAMHB, 37°C 16–20 h, OD600, read-out: MIC.
Setting [17] is: Acinetobacter baumannii, isolate AB7, planktonic, broth microdilution, CAMHB, 37°C 16–20 h, OD600, read-out: MIC.
Setting [18] is: Acinetobacter baumannii, isolate AB8, planktonic, broth microdilution, CAMHB, 37°C 16–20 h, OD600, read-out: MIC.
[19] abbreviates: Acinetobacter baumannii, isolate AB9, planktonic, broth microdilution, CAMHB, 37°C 16–20 h, OD600, read-out: MIC.

Take `CO/N=C(\C(=O)N[C@@H]1C(=O)N2C(C(=O)O)=C(COC(C)=O)CS[C@H]12)c1csc(N)n1` [Cefotaxime, cefotaxime]: the MIC in test [1] (Acinetobacter baumannii), in test [1] (setting [3]), in test [1] (setting [4]), in test [1] (setting [5]), in test [1] (setting [6]) and in test [1] (setting [7]) was 256 µg/mL (≈ 562 µM) each time. Besides, the MIC in test [1] (setting [8]), in test [1] (setting [9]) and in test [1] (setting [10]) was 256 µg/mL (≈ 562 µM) throughout.
On to `O=C(N[C@H](CO)[C@H](O)c1ccc([N+](=O)[O-])cc1)C(Cl)Cl` [Chloramphenicol, chloramphenicol], for which the MIC in test [1] (setting [11]), in test [1] (setting [12]), in test [1] (setting [13]), in test [1] (setting [14]), in test [1] (setting [15]) and in test [1] (setting [16]) was 32 µg/mL (≈ 99 µM) each time. Also, the MIC in test [1] (setting [17]), in test [1] (setting [18]) and in test [1] (setting [19]) was 32 µg/mL (≈ 99 µM) each time.
Turning to `C[C@H]1COc2c(N3CCN(C)CC3)c(F)cc3c(=O)c(C(=O)O)cn1c23` [Levofloxacin, levofloxacin], the MIC in test [1] (setting [11]) turned out to be 16 µg/mL (≈ 44.3 µM); in test [1] (setting [12]) it was 16 µg/mL (≈ 44.3 µM); in test [1] (setting [13]) it was 16 µg/mL (≈ 44.3 µM); in test [1] (setting [14]), 8 µg/mL (≈ 22.1 µM); in test [1] (setting [15]), 8 µg/mL (≈ 22.1 µM); in test [1] (setting [16]), 16 µg/mL (≈ 44.3 µM). In addition, the MIC in test [1] (setting [17]) stood at 8 µg/mL (≈ 22.1 µM); in test [1] (setting [18]), 16 µg/mL (≈ 44.3 µM); in test [1] (setting [19]), 16 µg/mL (≈ 44.3 µM).
In the case of `C[C@@H](O)[C@H]1C(=O)N2C(C(=O)O)=C(S[C@@H]3CN[C@H](C(=O)N(C)C)C3)[C@H](C)[C@H]12` [Meropenem, meropenem], the MIC in test [1] (setting [11]), in test [1] (setting [12]), in test [1] (setting [13]), in test [1] (setting [14]), in test [1] (setting [15]) and in test [1] (setting [16]) was 32 µg/mL (≈ 83.4 µM) in each case. In addition, the MIC in test [1] (setting [17]), in test [1] (setting [18]) and in test [1] (setting [19]) was 32 µg/mL (≈ 83.4 µM) throughout.
In the case of `NCC[C@H](O)C(=O)N[C@@H]1C[C@H](N)[C@@H](O[C@H]2O[C@H](CN)[C@@H](O)[C@H](O)[C@H]2O)[C@H](O)[C@H]1O[C@H]1O[C@H](CO)[C@@H](O)[C@H](N)[C@H]1O` [Amikacin, amikacin], the MIC in test [1] (setting [11]), in test [1] (setting [12]), in test [1] (setting [13]), in test [1] (setting [14]), in test [1] (setting [15]) and in test [1] (setting [16]) was greater than 1020 µg/mL each time. Also, the MIC in test [1] (setting [17]), in test [1] (setting [18]) and in test [1] (setting [19]) was greater than 1020 µg/mL throughout.
`CN(C)c1cc(NC(=O)CNC(C)(C)C)c(O)c2c1C[C@H]1C[C@H]3[C@H](N(C)C)C(O)=C(C(N)=O)C(=O)[C@@]3(O)C(O)=C1C2=O` [Tigecycline, tigecycline] had an intermediate rate in test [2] of 67%. The molecule also displayed a resistance rate in test [2] of 22%. The sensitivity rate in test [2] is 11%; in test [1] (planktonic cell, nine isolates), 100%. Besides, the MIC in test [1] (setting [11]), in test [1] (setting [12]), in test [1] (setting [13]), in test [1] (setting [14]), in test [1] (setting [15]) and in test [1] (setting [16]) was 1 µg/mL (≈ 1.71 µM) throughout. In addition, the MIC in test [1] (setting [17]) came to 1 µg/mL (≈ 1.71 µM); in test [1] (setting [18]), 1 µg/mL (≈ 1.71 µM); in test [1] (setting [19]), 0.5 µg/mL (≈ 0.854 µM).
`C[C@@H](O)[C@H]1C(=O)N2C(C(=O)O)=C(SCCN=CN)C[C@H]12` [Imipenem, imipenem]: the MIC in test [1] (setting [11]), in test [1] (setting [12]), in test [1] (setting [13]), in test [1] (setting [14]), in test [1] (setting [15]) and in test [1] (setting [16]) was 64 µg/mL (≈ 214 µM) throughout. Moreover, the MIC in test [1] (setting [17]), in test [1] (setting [18]) and in test [1] (setting [19]) was 64 µg/mL (≈ 214 µM) in each case.
In the case of `CC(C)(O/N=C(\C(=O)N[C@@H]1C(=O)N2C(C(=O)[O-])=C(C[n+]3ccccc3)CS[C@H]12)c1csc(N)n1)C(=O)O` [Ceftazidime, ceftazidime], the MIC in test [1] (Acinetobacter baumannii), in test [1] (setting [3]), in test [1] (setting [4]), in test [1] (setting [5]), in test [1] (setting [6]) and in test [1] (setting [7]) was 256 µg/mL (≈ 468 µM) each time. Besides, the MIC in test [1] (setting [8]), in test [1] (setting [9]) and in test [1] (setting [10]) was 256 µg/mL (≈ 468 µM) in each case.
With `CCN1CCN(C(=O)N[C@@H](C(=O)N[C@@H]2C(=O)N3[C@@H]2SC(C)(C)[C@@H]3C(=O)O)c2ccccc2)C(=O)C1=O` [Piperacillin, piperacillin], the MIC in test [1] (setting [11]), in test [1] (setting [12]), in test [1] (setting [13]), in test [1] (setting [14]), in test [1] (setting [15]) and in test [1] (setting [16]) was greater than 1020 µg/mL each time. Further, the MIC in test [1] (setting [17]), in test [1] (setting [18]) and in test [1] (setting [19]) was greater than 1020 µg/mL in each case.
With `CN(C)c1ccc(O)c2c1C[C@H]1C[C@H]3[C@H](N(C)C)C(O)=C(C(N)=O)C(=O)[C@@]3(O)C(O)=C1C2=O` [Minocycline, minocycline], the MIC in test [1] (setting [11]), in test [1] (setting [12]), in test [1] (setting [13]), in test [1] (setting [14]), in test [1] (setting [15]) and in test [1] (setting [16]) was 16 µg/mL (≈ 35 µM) each time. For the same molecule, the MIC in test [1] (setting [17]), in test [1] (setting [18]) and in test [1] (setting [19]) was 16 µg/mL (≈ 35 µM) in each case.
For the molecule `CN(C)[C@@H]1C(O)=C(C(N)=O)C(=O)[C@@]2(O)C(O)=C3C(=O)c4c(O)cccc4[C@@](C)(O)[C@H]3C[C@@H]12` [Tetracycline, tetracycline], the MIC in test [1] (setting [11]), in test [1] (setting [12]), in test [1] (setting [13]), in test [1] (setting [14]), in test [1] (setting [15]) and in test [1] (setting [16]) was greater than 1020 µg/mL throughout. Also, the MIC in test [1] (setting [17]), in test [1] (setting [18]) and in test [1] (setting [19]) was greater than 1020 µg/mL in each case.
On to `CNC(C)C1CCC(N)C(OC2C(N)CC(N)C(OC3OCC(C)(O)C(NC)C3O)C2O)O1` (stereo not shown) [Gentamicin, gentamicin], for which the MIC in test [1] (Acinetobacter baumannii) was greater than 1020 µg/mL; in test [1] (setting [3]), greater than 1024 µg/mL; in test [1] (setting [4]), greater than 1024 µg/mL; in test [1] (setting [5]) it was greater than 1024 µg/mL; in test [1] (setting [6]) it was greater than 1024 µg/mL; in test [1] (setting [7]), greater than 1024 µg/mL. Besides, the MIC in test [1] (setting [8]), in test [1] (setting [9]) and in test [1] (setting [10]) was greater than 1024 µg/mL each time.
